Several values for one entry are separate records, joined by “and”; a condition that tells them apart may be missing. Identical values can stand only once.
Key:
[1] = system: A375 cells; assay: Wound-healing assay, A375 cells; type: cell-based, human; settings: 48 h after wounding, sPAH added to vemurafenib
Protocol: Once cells were confluent in 24-well plates, a wound was created using a p200 tip. Two pictures were taken at two different points of each well immediately after wounding, and 48 h after wounding. Images were taken with Leica DM IRB (5×). The width of the wound was measured using ImageJ software and reported as percentage final wound width/initial wound width.

[2] = target: T1, human Ptch1 (Homo sapiens, UniProt Q13635); assay: Microscale thermophoresis on membranes from yeast expressing human Ptch1; type: binding; settings: membranes from yeast expressing hPtch1; MST; mean of 3 experiments
T1 construct: made in house; host or cells: yeast (membrane preparation)
T1 sequence (Q13635 1-1447): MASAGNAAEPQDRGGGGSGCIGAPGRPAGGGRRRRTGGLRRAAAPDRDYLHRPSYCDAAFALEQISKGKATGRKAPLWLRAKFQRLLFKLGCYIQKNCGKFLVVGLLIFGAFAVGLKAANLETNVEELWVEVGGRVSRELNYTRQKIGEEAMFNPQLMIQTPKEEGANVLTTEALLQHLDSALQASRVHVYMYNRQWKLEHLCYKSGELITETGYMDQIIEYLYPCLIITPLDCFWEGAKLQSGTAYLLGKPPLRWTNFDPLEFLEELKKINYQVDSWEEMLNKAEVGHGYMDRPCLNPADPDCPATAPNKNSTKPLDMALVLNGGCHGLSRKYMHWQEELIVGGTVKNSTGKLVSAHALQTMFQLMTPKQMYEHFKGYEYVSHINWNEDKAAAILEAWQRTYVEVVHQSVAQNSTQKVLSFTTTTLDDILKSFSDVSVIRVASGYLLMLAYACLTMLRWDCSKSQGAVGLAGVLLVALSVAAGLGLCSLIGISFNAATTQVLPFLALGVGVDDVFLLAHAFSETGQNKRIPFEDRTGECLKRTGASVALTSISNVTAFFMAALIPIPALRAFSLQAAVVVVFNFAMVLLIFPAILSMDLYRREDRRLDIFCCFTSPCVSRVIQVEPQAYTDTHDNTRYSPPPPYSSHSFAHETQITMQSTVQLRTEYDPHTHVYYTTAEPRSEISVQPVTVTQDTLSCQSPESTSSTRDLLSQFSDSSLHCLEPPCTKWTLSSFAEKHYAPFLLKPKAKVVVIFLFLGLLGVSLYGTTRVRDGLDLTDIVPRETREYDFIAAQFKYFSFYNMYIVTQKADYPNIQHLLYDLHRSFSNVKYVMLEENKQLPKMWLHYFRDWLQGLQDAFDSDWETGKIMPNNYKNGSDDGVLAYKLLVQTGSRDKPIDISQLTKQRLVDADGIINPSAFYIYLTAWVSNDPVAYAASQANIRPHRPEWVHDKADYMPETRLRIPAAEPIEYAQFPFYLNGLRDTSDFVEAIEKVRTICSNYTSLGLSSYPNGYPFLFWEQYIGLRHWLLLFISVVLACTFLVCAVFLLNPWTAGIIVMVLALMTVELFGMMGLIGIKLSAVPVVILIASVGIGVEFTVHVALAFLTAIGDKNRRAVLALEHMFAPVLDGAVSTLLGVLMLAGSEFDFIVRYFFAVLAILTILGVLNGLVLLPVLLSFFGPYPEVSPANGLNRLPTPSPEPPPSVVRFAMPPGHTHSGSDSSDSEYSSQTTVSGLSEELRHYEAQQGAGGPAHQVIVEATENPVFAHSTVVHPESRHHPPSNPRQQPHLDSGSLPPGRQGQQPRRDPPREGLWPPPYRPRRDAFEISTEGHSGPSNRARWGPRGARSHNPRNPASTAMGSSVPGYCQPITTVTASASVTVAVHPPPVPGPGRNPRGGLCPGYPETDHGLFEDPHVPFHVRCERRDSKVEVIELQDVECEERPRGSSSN
Protocol: Microscale thermophoresis (MST) is a biophysical technique that measures the strength of the interaction between two molecules by detecting a variation in the fluorescence signal of a fluorescently labeled target as a result of an IR-laser induced temperature change. The range of the variation in the fluorescence signal correlates with the binding of a ligand to the fluorescent target.
Membranes from yeast expressing human Ptch1 or human Smoothened were incubated at 30 µg/mL with 20 nM of the fluorescent dye NT-647 2nd gen (NanoTemper Technologies, München, Germany) to label the His-tag present at the c-terminus of both proteins. […] The fluorescence within the capillary is excited and detected through the same objective. […] The MST response of fluorescent proteins within the temperature gradient is detected. After activation of the IR laser, a decrease in fluorescence is observed which corresponds to temperature-related intensity change (TRIC) triggered by the fast temperature change and thermophoretic movement of the fluorescent proteins out of the heated sample volume. […] For analysis, the change in MST signal is expressed as the change in the normalized fluorescence (Fnorm), which is defined as F1/F0. […] The sPAH Kd was determined for 3 independent experiments.

[3] = system: MeWo cells; assay: Dxr efflux measurement by fluorescence microscopy, MeWo cells; type: cell-based, human; settings: 30 min in efflux buffer
Protocol: Dxr efflux measurements were carried out as previously described. Cells were seeded on coverslips in 24-well plates and allowed to grow to 80% confluence. Coverslips were incubated at 37 °C and 5% CO2 with 10 μM dxr in physiological buffer (140 mM NaCl, 5 mM KCl, 1 mM CaCl2, 1 mM MgSO4, 5 mM glucose, 20 mM HEPES, pH 7.4). After 2 h, three coverslips were immediately fixed with 4% PFA for the dxr loading control, rapidly washed with PBS and mounted in SlowFade Gold antifade reagent with DAPI (Invitrogen). The other coverslips (triplicated per condition) were incubated with physiological buffer supplemented with DMSO or 10 µM of PAH under gentle shaking at room temperature and protected from light. After 30 min, coverslips were fixed with 4% PFA, washed, and mounted as described above. For competition on dxr loading, A375 and WM9R cells seeded on coverslips were incubated for 1 h at 37 °C and 5% CO2 with 10 μM dxr in physiological buffer in the presence or the absence of 100 µM vemurafenib. Images were acquired with a Zeiss Axioplan 2 fluorescence microscope coupled to a digital charge-coupled device camera using a 40×/1.3 Plan NeoFluar objective and filters for Alexa 594. Dxr fluorescence was quantified using ImageJ software. Sampling of cells was performed randomly. About 100 cells (from three wells) were scored per condition per experiment.

## COc1cc(C)c(CC/C(C)=C/Cc2cc(O)ccc2O)c(C)c1C [sPAH, Panicein A hydroquinone]
[1]
  effect on vemurafenib efficacy against cell migration: increased vemurafenib efficacy
[2]
  Kd: ~7 µM and 7.2 µM
[3]
  inhibition of dxr efflux, synthetic compared with natural PAH: as efficiently as the natural PAH

Source: article PMC7352342, “Inhibition of Patched Drug Efflux Increases Vemurafenib Effectiveness against Resistant Braf^V600E Melanoma” (Cancers, 2020)
